Measurements from US20050153985A1, “Methods of treating acute inflammation in animals with p38 map kinase inhibitors” (priority 2003, published 2005).
“Also recorded” adds a separate entry of the source.

Tested on: E. coli (MacDonald 487) induced mastitis
Assay: E. coli induced mastitis in lactating cows, treatment 13 hours after intramammary challenge
Format: in vivo, lactating Holstein cows
Details: 10 mg/kg IV; for mean E. coli colony counts in milk after treatment: 11-168 hours, FIG. 10; for mean E. coli colony counts in milk after treatment / milk somatic cell count (SCC) / mean whey PGE2 levels after treatment: compared to infected; for mean E. coli colony counts in milk after treatment / milk clinical scores / gland clinical scores: non-medicated controls; for whey PGE2 levels at 11 hours after treatment: relative to level at time 0; for milk produced during the 13 days after treatment: based on mean daily milk production values from FIG. 2, infected, non-medicated cow 365 lbs; for cumulative clinical scores: compared to controls, FIG. 5; for milk production loss associated with mastitis following treatment: compared to infected cows treated with vehicle, FIG. 2; for milk somatic cell count (SCC) / mean whey PGE2 levels after treatment: non-medicated control cows; for milk somatic cell count (SCC): FIG. 6; for mean whey PGE2 levels after treatment: FIG. 9; for milk produced during the 13 days after treatment compared with infected, non-medicated cow: comparison in words; for total WBC numbers (peripheral blood) / total PMN numbers (peripheral blood): data analyzed for 0-72 hours, vs controls; for total WBC numbers (peripheral blood): FIG. 7; for total PMN numbers (peripheral blood): FIG. 8; for milk clinical scores / gland clinical scores: vs infected; for milk clinical scores: FIG. 3; for gland clinical scores: FIG. 4
Excerpt: Thirty-three lactating Holstein cows were randomly allotted to 5 treatment groups blocked by milk production and days in milk. Milk and blood samples and temperature data were collected at the morning milking on day −1. One normal quarter was selected from each cow based on clinical scores and California Mastitis Test (CMT) results performed at morning milking on day −1. After the evening milking on […], selected quarters were infused with approximately 30 cfu of E. coli (MacDonald 487). Milk and blood samples and temperature data were collected prior to treatment at the morning milking on day 0. Cows were treated after the morning milking on day 0 according to the study design. After treatment, milk and blood samples and temperature data were collected at 11, 24, 35, 48, 72, 144, 168, 192, and 216 hours. Clinical scores of infused quarters and milk production were assessed at each milking. Milk samples were analyzed for culture (E. coli), SCC, TNF-α and PGE2 and blood leukograms were determined. [table] Assessment of test article efficacy was determined based upon a comparison of the treatment effect on each variable versus the challenged, non-medicated group. Data were analyzed using the MIXED procedure of PC-SAS version 6.12. The model included treatment, time and their interaction. Covariance within cows across time was modeled using the Repeated statement analysis with a […] covariance structure to account for unequally spaced sampling times. Tests for significance (P≦0.10) were based upon the main treatment effect compared with the challenged, non-medicated group. The P value of ≦0.10 was selected based on the number of animals per treatment group and the conservative nature of the SAS procedure. […] In all, 27 of 27 quarters challenged developed clinical mastitis.

Compound | mean E. coli colony counts in milk after treatment | whey PGE2 levels at 11 hours after treatment | milk produced during the 13 days after treatment [lbs] | cumulative clinical scores | milk production loss associated with mastitis following treatment | milk somatic cell count (SCC) | mean whey PGE2 levels after treatment | milk produced during the 13 days after treatment compared with infected, non-medicated cow | total WBC numbers (peripheral blood) | total PMN numbers (peripheral blood) | milk clinical scores | gland clinical scores
Nc1nccc(-c2c(-c3ccc(F)cc3)ncn2C2CCNCC2)n1 [MAPKi #1] | significantly decreased; also recorded: Significant improvement | decline | 847 | significantly lower; also recorded: Significant improvement | significantly less milk production loss; also recorded: Significant improvement | trend towards lower SCC | significant reduction; also recorded: Significant improvement | more than twice as much milk | returned to pre-challenge levels significantly faster; also recorded: Significant improvement | returned to pre-challenge levels significantly faster | significantly improved; also recorded: Significant improvement | Significantly improved; also recorded: Significant improvement
CC(C)n1c(=O)n(C)c2cc(-c3[nH]c(-c4cnccn4)nc3-c3ccc(F)cc3)ccc21 [MAPKi #2] | decline in milk E. coli numbers compared to controls but the difference was not significant; also recorded: reduced | remained at the same level | 689 | significantly lower; also recorded: Significant reductions | – | – | significant reduction | produced more milk than control cows | returned to pre-challenge levels significantly faster | returned to pre-challenge levels significantly faster | significantly improved; also recorded: Significant reductions | Significantly improved; also recorded: Significant reductions
CC(=O)Nc1nc(-c2cccc(C)c2)c(-c2ccc3c(c2)n(C)c(=O)n3CC(C)C)[nH]1 [MAPKi #3] | did not show a decline | continue to rise | 366 | – | no trend for improved | trend towards lower SCC | significant reduction; also recorded: significantly reduced | produced the same amount of milk as infected, non-medicated control cows | – | – | no trend for improved | Significantly improved
